From patent publication US6441023B1 (American Home Products Corporation, priority 1997, dated 2002) come the findings set out here.

The target of one series is T1, MMP 1 (Homo sapiens, UniProt P03956).
T1 construct: human recombinant fibroblast collagenase (truncated, mw=18,828, WAR, Radnor)
T1 sequence (P03956 100-269 limits assumed): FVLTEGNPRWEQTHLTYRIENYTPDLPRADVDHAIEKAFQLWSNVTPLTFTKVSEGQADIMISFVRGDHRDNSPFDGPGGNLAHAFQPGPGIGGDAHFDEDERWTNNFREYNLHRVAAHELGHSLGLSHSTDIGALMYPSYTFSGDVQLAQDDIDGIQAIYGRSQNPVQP
The experiment in a line: In vitro collagenase assay (human recombinant fibroblast collagenase). Format: biochemical. Particulars: for IC50: read-out: MMP 1 IC 50. The procedure:
The assay is based on the cleavage of a peptide substrate ((Dnp-Pro-Cha-Gly-Cys(iNe)-His-Ala-Lys(NMa)-NH2), Peptide International, Inc.) by collag,enase releasing the fluorescent NMa group which is quantitated on the fluorometer. Dnp quenches the NiIa fluorescence in the intact substrate. […] Substrate is dissolved in methanol and stored frozen in 1 mM aliquots. Collagenase is stored frozen in buffer in 25 µM aliquots. For the assay, substrate is dissolved in HCBC buffer to a final concentration of 10 μM and collagenase to a final concentration of 5 nM. Compounds are dissolved in methanol, DMSO, or HCBC. The methanol and DMSO are diluted in HCBC to <1.0%. Compounds are added to the 96 well plate containing enzyme and the reaction is started by the addition of substrate.
The slope of the line is calculated and represents the reaction rate.
The mean (x±sem) of the control rate is calculated and compared for statistical significance (p<0.05) with drug-treated rates using Dunnett's multiple comparison test.

The next series has as its target MMP 13 (Homo sapiens, UniProt P45452). The experiment in a line: MMP 13 inhibition (manual). Particulars: for IC50: read-out: MMP 13 IC 50. Format: biochemical.
The target of the next series is T2, MMP 9 (Homo sapiens, UniProt P14780).
T2 construct: from tissue; host or cells: human neutrophils
T2 sequence (P14780 94-707): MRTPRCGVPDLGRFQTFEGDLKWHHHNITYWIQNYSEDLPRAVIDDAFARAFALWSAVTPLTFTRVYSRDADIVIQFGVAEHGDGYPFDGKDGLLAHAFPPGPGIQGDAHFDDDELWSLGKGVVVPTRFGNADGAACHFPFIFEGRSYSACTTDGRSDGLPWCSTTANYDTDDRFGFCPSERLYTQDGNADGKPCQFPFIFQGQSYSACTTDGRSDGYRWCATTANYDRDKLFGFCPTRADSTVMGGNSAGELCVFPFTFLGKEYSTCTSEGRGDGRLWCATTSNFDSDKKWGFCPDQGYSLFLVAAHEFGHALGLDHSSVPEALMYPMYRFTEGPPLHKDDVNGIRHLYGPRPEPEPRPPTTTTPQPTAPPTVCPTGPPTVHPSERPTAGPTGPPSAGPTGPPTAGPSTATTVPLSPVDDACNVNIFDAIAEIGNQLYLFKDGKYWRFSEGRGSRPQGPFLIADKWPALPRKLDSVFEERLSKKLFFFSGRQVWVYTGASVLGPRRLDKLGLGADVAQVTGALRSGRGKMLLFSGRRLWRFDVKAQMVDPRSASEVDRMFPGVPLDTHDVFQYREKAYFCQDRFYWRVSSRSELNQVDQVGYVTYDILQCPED
The experiment in a line: In vitro gelatinase assay (human neutrophil gelatinase B). Format: biochemical. As to conditions: for IC50: read-out: MMP 9 IC 50. The procedure: The assay is based on the cleavage of the thiopeptide substrate ((Ac-Pro-Leu-Gly(2 mercapto-4 methyl-pentanoyl)-Leu-Gly-OEt), Bachem Bioscience) by the enzyme, gelatinase, releasing the substrate product which reacts calorimetrically with DTNB ((5,5′-dithio-bis(2-nitro-benzoic acid)). The enzyme activity is measured by the rate of the color increase.
The thiopeptide substrate is made up fresh as a 20 mM stock in 100% DMSO and the DTNB is dissolved in 100% DMSO as a 100 mM stock and stored in dark at room temperature. Both the substrate and DTNB are diluted together to 1 mM with substrate buffer (50 mM HEPES pH 7.5, 5 mM CaCl2) before use. The stock of human neutrophil gelatinase B is diluted with assay buffer (50 mnM HEPES pH 7.5, 5 mM CaCl2, 0.02% Brij) to a final concentration of 0.15 mnM.
The increase in OD405 is plotted and the slope of the line is calculated which represents the reaction rate.

Another series addresses T3, TACE (Homo sapiens, UniProt P78536).
T3 construct: purchased Immunex
The experiment in a line: Procedure for measuring TACE inhibition. It counts as biochemical. Particulars: for IC50: read-out: TACE IC 50; for inhibition at 10 µM: read-out: TACE % inhibition at 10 micromolar (*). The procedure: Using 96-well black microtiter plates, each well receives a solution composed of 10 μL TACE (Inmunex, final concentration 1 μg/mL), 70 μL Tris buffer, pH 7.4 containing 10% glycerol (final concentration 10 mM), and 10 μL of test compound solution in DMSO ([…], DMSO concentration <1%) and incubated for 10 minutes at room temperature. The reaction is initiated by addition of a fluorescent peptidyl substrate (final concentration 100 μM to each well and then shaking on a shaker for 5 sec.
The reaction is read (excitation 340 nm, emission 420 nm) for 10 min. and the increase in fluorescence over time is plotted as a linear line. The slope of the line is calculated and represents the reaction rate.
The mean (xtsem) of the control rate is calculated and compared for statistical significance (p<0.05) with drug-treated rates using Dunnett's multiple comparison test.

A word on the melting point: it is the temperature, or range, at which the solid turns liquid. A word on the inhibition: it is the relative decrease from the control value, in per cent.

Where a name gives a salt, the structure may show the parent alone.

T3 sequence (P78536 215-824): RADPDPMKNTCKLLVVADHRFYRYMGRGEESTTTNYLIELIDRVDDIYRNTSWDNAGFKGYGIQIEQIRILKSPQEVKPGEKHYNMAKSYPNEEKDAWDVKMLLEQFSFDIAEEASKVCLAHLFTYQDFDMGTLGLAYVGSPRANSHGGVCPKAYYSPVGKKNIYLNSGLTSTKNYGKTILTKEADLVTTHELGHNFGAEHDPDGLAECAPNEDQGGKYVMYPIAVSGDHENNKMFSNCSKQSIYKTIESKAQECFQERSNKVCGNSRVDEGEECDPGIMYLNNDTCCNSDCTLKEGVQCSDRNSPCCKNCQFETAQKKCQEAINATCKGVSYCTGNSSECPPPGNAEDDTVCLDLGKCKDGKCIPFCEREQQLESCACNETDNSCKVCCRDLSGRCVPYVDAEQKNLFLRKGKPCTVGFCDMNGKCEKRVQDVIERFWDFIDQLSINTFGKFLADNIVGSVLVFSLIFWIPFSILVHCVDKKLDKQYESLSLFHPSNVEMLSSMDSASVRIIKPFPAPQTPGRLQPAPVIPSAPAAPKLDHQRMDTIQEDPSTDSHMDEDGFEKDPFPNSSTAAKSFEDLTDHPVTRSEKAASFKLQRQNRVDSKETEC

With “2-[8-(1-carboxy-ethanesulfonyl)-octane-1-sulfonyl]-propionic acid hydroxyamide [Example 49]”, the “MMP 1 % inhibition at 1 micromolar” value on MMP 1 (1 micromolar) was determined as 10.1%. Besides, the “MMP 13 % inhibition at 1 micromolar” value at MMP 13 (1 micromolar) is reported as 54.6%. Besides, on MMP 9 (1 micromolar), the “MMP 9 % inhibition at 1 micromolar” value is given as 23.7%.

In turn, `CCCCOc1ccc(S(=O)(=O)C2(C(=O)NO)CCN(Cc3ccc(OCCN4CCCCC4)cc3)CC2)cc1` (as salt: HCl) [Example 242, 4-(4-Butoxy-benzenesulfonyl)-1-[4-(2-piperidin-1-yl-ethoxy)-benzyl]-piperidine-4-carboxylic acid hydroxyamide] displayed a melting point of 155 °C.

`CCCCOc1ccc(S(=O)(=O)C2(C(=O)NO)CCN(Cc3cccc(OCCN4CCOCC4)c3)CC2)cc1` (as salt: HCl) [Example 243, 4(4-Butoxy-benzenesulfonyl)-1-[3-(2-morpholinyl-1-ylthoxy)-benzyl]-piperidine-4-carboxylic acid hydroxyamide] yielded a melting point of 123 °C.

In turn, `CN1CCC(C(=O)NO)(S(=O)(=O)c2ccc(Oc3ccc(Cl)cc3)cc2)CC1` (as salt: HCl) [Example 249, 4-[4-(4-chloro-phenoxy)-benzenesulfonyl]1-methyl-piperidine-4-carboxylic acid hydroxyamide] gave a melting point of 52 °C.

For `CCN1CCC(C(=O)NO)(S(=O)(=O)c2ccc(Oc3ccc(Cl)cc3)cc2)CC1` (as salt: HCl) [Example 250, 4-[4-(4-chloro-phenoxy)-benzenesulfonyl]1-ethyl-piperidine-4-carboxylic acid hydroxyamide], the melting point was 158 °C.

`CCCCOc1ccc(S(=O)(=O)C2(C(=O)NO)CCN(Cc3cccc(OC)c3)CC2)cc1` (as salt: HCl) [Example 260, 4-(4-butoxy-benzenesulfonyl)-1-(3-methoxy-benzyl)-piperidine-4-carboxylic acid hydroxyamide] yielded a melting point of 137 °C.

The molecule `COc1ccc(S(=O)(=O)C2(C(=O)NO)CCN(Cc3ccc(-c4ccccn4)cc3)CC2)cc1` (as salt: HCl) [Example 262, 4-(4-methoxy-benzenesulfonyl)-1-(4-pyridin-2-yl-benzyl)-piperidine-4-carboxylic acid hydroxyamide] yielded a melting point of 214 °C.

In turn, `CCCCOc1ccc(S(=O)(=O)C2(C(=O)NO)CCN(Cc3ccc(Cl)c(Cl)c3)CC2)cc1` (as salt: HCl) [Example 263, 1-(3,4-Dichlorobenzyl)-4-(4-butoxy-benzenesulfonyl)-piperidine-4-carboxylic acid hydroxyamide] yielded a melting point of 256.8 °C.

For `CCCCCC(C(=O)NO)[S+]([O-])c1ccc(OC)cc1` (single isomer, unassigned) [Example 81b, 2S*-(4-methoxy-phenyl-R*-sulfinyl)-heptanoic acid hydroxyamide], the IC50 on MMP 1 stood at 3760 nM; on MMP 13, 15.7 nM; on TACE it was 228 nM; at MMP 9 it was 154 nM.

For the molecule `CCN1CCC(C(=O)NO)(S(=O)(=O)c2ccc(Oc3ccc(Cl)cc3)cc2)CC1` [Example 250, 4-[4-(4-chloro-phenoxy)-benzenesulfonyl]1-ethyl-piperidine-4-carboxylic acid hydroxyamide], the IC50 worked out at 1720 nM on MMP 1, 0.8 nM on MMP 13, 413 nM at TACE and 1.6 nM on MMP 9.

With `CCCCN1CCC(C(=O)NO)(S(=O)(=O)c2ccc(Oc3ccc(Cl)cc3)cc2)CC1` [Example 251], the IC50 at MMP 1 was determined as 1070 nM; on MMP 13, 0.9 nM; at TACE it was 301 nM; at MMP 9, 0.8 nM.

On to `O=C(NO)C1(S(=O)(=O)c2ccc(Oc3ccc(Cl)cc3)cc2)CCN(Cc2ccccc2)CC1` [Example 252, 1-Benzyl-4-[4-(4-chloro-phenoxy)-benzenesulfonyl]-piperidine-4-carboxylic acid hydroxyamide], for which the IC50 worked out at 801 nM on MMP 1, 0.9 nM at MMP 13 and 1.1 nM on MMP 9.

Regarding `CCCCN1CCC(C(=O)NO)(S(=O)(=O)c2ccc(OCCC(C)C)cc2)CC1` [Example 256, 1 -Butyl-4-[4-(3-methyl-butoxy)-benzenesulfonyl]-piperidine-4-carboxylic acid hydroxyamide], the IC50 on MMP 1 was 10000 nM; on MMP 13, 2.9 nM; on MMP 9 it was 7.2 nM. Moreover, at TACE, the inhibition at 10 µM was found to be 43%.

`CCC(CC)COc1ccc(S(=O)(=O)C2(C(=O)NO)CCN(Cc3ccccc3)CC2)cc1` [Example 259, 1-Benzyl4-[4-(2-ethyl-butoxy)-benzenesulfonyl]-piperidine-4-carboxylic acid hydroxyamide]: the IC50 came out at 3160 nM at MMP 1, 5.3 nM on MMP 13 and 14.3 nM at MMP 9. At TACE, the inhibition at 10 µM stood at 39%.

Regarding `CCCCOc1ccc(S(=O)(=O)C2(C(=O)NO)CCN(Cc3ccc(Cl)c(Cl)c3)CC2)cc1` [Example 263, 1-(3,4-Dichlorobenzyl)-4-(4-butoxy-benzenesulfonyl)-piperidine-4-carboxylic acid hydroxyamide], the IC50 on MMP 1 was determined as 3670 nM; on MMP 13, 5.2 nM; at MMP 9, 20.3 nM. In addition, the inhibition at 10 µM at TACE is 57.7%.

In the case of `CN1CCC(C(=O)NO)(S(=O)(=O)c2ccc(OCc3ccc(Cl)cc3)cc2)CC1` [Example 264, [4-(4-Chloro-benzyloxy)benzenesulfonyl]-1-methylpiperidine-4-carboxylic acid hydroxamide], the IC50 at MMP 1 amounted to 4290 nM; on MMP 13, 3.1 nM; at TACE, 182 nM; at MMP 9 it was 2.9 nM.

As to `CCCCOc1ccc(S(=O)(=O)C2(C(=O)NO)CCN(Cc3cccc(Oc4ccccc4)c3)CC2)cc1` [Example 265, 4-(4-Butoxy-benzenesulfonyl)-1-(3-phenoxy-benzyl)-piperidine-4-carboxylic acid hydroxamide], the IC50 at MMP 1 was determined as 1940 nM; at MMP 13 it was 7.8 nM; on TACE, 1040 nM; on MMP 9, 9.3 nM.

In the case of `Cc1ccc(CN2CCC(C(=O)NO)(S(=O)(=O)c3ccc(OCc4ccc(Cl)cc4)cc3)CC2)cc1` [Example 266, [4-(4-Chloro-benzyloxy)-benzenesulfonyl]-1-(4-methylbenzyl)-piperidine-4-carboxylic acid hydroxamide], the figures for the IC50 at MMP 13, on TACE and at MMP 9 were 5.7 nM, 421 nM and 6 nM, respectively.

Take `CCCCOc1ccc(S(=O)(=O)C2(C(=O)NO)CCN(Cc3ccc(C)cc3)CC2)cc1` [Example 267, 4-(4-Butoxy-benzenesulfonyl)-1-(4-methylbenzyl)-piperidine-4-carboxylic acid hydroxamide]: the IC50 at MMP 1 is 3620 nM; on MMP 13 it was 2.3 nM; on TACE it was 508 nM; at MMP 9, 5.4 nM.

Turning to `CCCCOc1ccc(S(=O)(=O)C2(C(=O)NO)CCN(Cc3ccc(C#N)cc3)CC2)cc1` [Example 268, 4-(4-Butoxy-benzenesulfonyl)-1-(4-cyano-benzyl)-piperidine-4-hydroxamide carboxylic acid hydroxamide], the IC50 at MMP 1 was 2290 nM; at MMP 13, 1.1 nM; on TACE, 278 nM; at MMP 9, 2.8 nM.

Consider `CCCCOc1ccc(S(=O)(=O)C2(C(=O)NO)CCN(Cc3ccncc3)CC2)cc1` [Example 269, 4-(4-Butoxy-benzenesulfonyl)-1-pyridin-4-ylmethyl-piperidine-4-carboxylic acid hydroxamide], for which the IC50 at MMP 1 was 2070 nM; at MMP 13, 1.4 nM; at TACE, 296 nM; on MMP 9, 2.2 nM.
